{"source": "paper PMC5304190", "about": "“Inhibitory effects of cholinesterase inhibitor donepezil on the Kv1.5 potassium channel” (Scientific Reports, 2017)", "molecular_target": "T1, Kv1.5 (Rattus norvegicus, UniProt P19024)", "T1 construct": "gene Kcna5; Rat Kv1.5 in pEYFP-N1 vector, expressed in HEK293 cells", "T1 sequence (P19024 whole entry)": "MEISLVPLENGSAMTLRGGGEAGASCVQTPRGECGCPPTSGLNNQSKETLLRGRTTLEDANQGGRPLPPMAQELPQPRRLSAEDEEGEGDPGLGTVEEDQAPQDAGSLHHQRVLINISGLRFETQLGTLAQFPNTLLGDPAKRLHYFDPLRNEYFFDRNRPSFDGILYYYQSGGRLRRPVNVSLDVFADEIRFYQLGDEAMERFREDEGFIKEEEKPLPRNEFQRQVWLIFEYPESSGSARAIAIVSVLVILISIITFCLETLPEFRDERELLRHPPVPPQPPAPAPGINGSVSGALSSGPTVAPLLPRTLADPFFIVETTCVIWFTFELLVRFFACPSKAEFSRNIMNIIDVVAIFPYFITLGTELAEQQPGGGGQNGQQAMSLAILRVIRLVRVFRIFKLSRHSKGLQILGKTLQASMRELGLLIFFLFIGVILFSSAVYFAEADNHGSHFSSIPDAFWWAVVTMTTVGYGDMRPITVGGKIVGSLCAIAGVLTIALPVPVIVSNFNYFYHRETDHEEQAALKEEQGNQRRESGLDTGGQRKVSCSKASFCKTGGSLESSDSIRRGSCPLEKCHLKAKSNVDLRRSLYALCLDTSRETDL", "assay": "whole-cell patch clamp of Kv1.[…] expressed in HEK293 cells", "type": "cell-based"}
{"smiles": "COc1cc2c(cc1OC)C(=O)C(CC1CCN(Cc3ccccc3)CC1)C2", "note": "(stereo not shown) [donepezil]", "values": [{"measurement": "IC50", "value": "72.5 ± 0.5", "unit": "µM"}]}
